Toxic doses and inconclusive results are not listed. Rule as the data show it: active = T/C of 150% or more; inactive = T/C below 125%.
Tested on: L1210 leukemia ip in BDF1 mice, survival T/C
Experiment: NCI In Vivo Anticancer Drug Screen. Data for tumor model L1210 Leukemia (intraperitoneal) in B6D2F1 (BDF1) mice
Conditions: endpoint: mean survival time, higher = longer survival
How it was run: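 Read-out is survival time, reported as the treated-group measurement over the vehicle-control measurement.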

[1] = dose: 12.5 mg/kg/injection, schedule: Q04DX003 (ip), vehicle: saline
[2] = dose: 25.0 mg/kg/injection, schedule: Q04DX003 (ip), vehicle: saline
[3] = dose: 50.0 mg/kg/injection, schedule: Q04DX003 (ip), vehicle: saline
[4] = dose: 100.0 mg/kg/injection, schedule: Q01DX009 (ip), vehicle: saline
[5] = dose: 100.0 mg/kg/injection, schedule: Q04DX003 (ip), vehicle: saline
[6] = dose: 100.0 mg/kg/injection, schedule: Q04DX003 (ip), vehicle: Klucel (hydroxypropylcellulose) (HPC)
[7] = dose: 200.0 mg/kg/injection, schedule: Q04DX003 (ip), vehicle: Klucel (hydroxypropylcellulose) (HPC)
[8] = dose: 400.0 mg/kg/injection, schedule: Q04DX003 (ip), vehicle: Klucel (hydroxypropylcellulose) (HPC)
[9] = dose: 100.0 mg/kg/injection, schedule: Q04DX002 (ip), vehicle: saline with Tween-80
[10] = dose: 200.0 mg/kg/injection, schedule: Q04DX002 (ip), vehicle: saline with Tween-80
[11] = dose: 50.0 mg/kg/injection, schedule: Q01DX001 (ip), vehicle: saline
[12] = dose: 100.0 mg/kg/injection, schedule: Q01DX001 (ip), vehicle: saline
[13] = dose: 200.0 mg/kg/injection, schedule: Q01DX001 (ip), vehicle: saline
[14] = dose: 400.0 mg/kg/injection, schedule: Q01DX001 (ip), vehicle: saline
[15] = dose: 100.0 mg/kg/injection, schedule: Q04DX003 (ip), vehicle: saline with Tween-80
[16] = dose: 200.0 mg/kg/injection, schedule: Q04DX003 (ip), vehicle: saline with Tween-80

Measured: T/C

CC(CCc1ccccc1)NC(C)C(O)c1ccc(O)cc1 (stereo not drawn)
inactive: dose: 6.25 mg/kg/injection, schedule: Q01DX009 (ip), vehicle: saline 101 % of control | dose: 12.5 mg/kg/injection, schedule: Q01DX009 (ip), vehicle: saline 104 % of control | [1] 94 % of control | dose: 25.0 mg/kg/injection, schedule: Q01DX009 (ip), vehicle: saline 98 % of control | [2] 102 % of control | dose: 50.0 mg/kg/injection, schedule: Q01DX009 (ip), vehicle: saline 97 % of control | [3] 94 % of control | [4] 97 % of control | [5] 89 % of control

CCC(NCC(C)C)NCC(C)C
inactive: [1] 91 % of control | [2] 105 % of control | [3] 86 % of control

c1ccc(-c2nc(-c3ccccc3)nc(-c3ccccc3)n2)cc1
inactive: [6] 98 % of control | [7] 94 % of control | [8] 94 % of control

CNc1cn(C2OC(CO)C(O)C2O)c(=O)[nH]c1=O (stereo not drawn)
inactive: dose: 100.0 mg/kg/injection, schedule: Q01DX005 (ip), vehicle: saline 96 % of control | dose: 200.0 mg/kg/injection, schedule: Q01DX005 (ip), vehicle: saline 96 % of control

O=C1C=CC(=O)c2c1ccc1c2[nH]c2ccccc21
inactive: [9] 113 % of control | [10] 90 % of control

O=C(CCCc1ccccc1)N1CCOCC1
inactive: dose: 100.0 mg/kg/injection, schedule: Q01DX009 (ip), vehicle: saline sonified 94 % of control | dose: 200.0 mg/kg/injection, schedule: Q01DX009 (ip), vehicle: saline sonified 96 % of control | dose: 400.0 mg/kg/injection, schedule: Q01DX009 (ip), vehicle: saline sonified 102 % of control

CSCc1ccc([N+](=O)[O-])cc1
inactive: dose: 100.0 mg/kg/injection, schedule: Q01DX009 (ip), vehicle: Klucel (hydroxypropylcellulose) (HPC) 103 % of control | [6] 101 % of control | dose: 200.0 mg/kg/injection, schedule: Q01DX009 (ip), vehicle: Klucel (hydroxypropylcellulose) (HPC) 103 % of control | [7] 106 % of control | dose: 400.0 mg/kg/injection, schedule: Q01DX009 (ip), vehicle: Klucel (hydroxypropylcellulose) (HPC) 116 % of control | [8] 95 % of control

O=c1c2ccccc2c2ccccc2n1C(c1ccccc1)c1ccccc1
inactive: [6] 98 % of control | [7] 88 % of control | [8] 88 % of control

CC(=O)C1(O)CCCCC1
inactive: [4] 104 % of control | [5] 92 % of control | dose: 200.0 mg/kg/injection, schedule: Q01DX009 (ip), vehicle: saline 98 % of control | dose: 200.0 mg/kg/injection, schedule: Q04DX003 (ip), vehicle: saline 98 % of control | dose: 400.0 mg/kg/injection, schedule: Q01DX009 (ip), vehicle: saline 109 % of control | dose: 400.0 mg/kg/injection, schedule: Q04DX003 (ip), vehicle: saline 94 % of control

CCC[CH2][Sn]([S][Sn]([CH2]CCC)([c]1ccccc1)[c]1ccccc1)([c]1ccccc1)[c]1ccccc1
inactive: [9] 96 % of control | [10] 103 % of control

CN(N=O)C(=O)NC(=O)NCCCl
inactive: dose: 4.5 mg/kg/injection, schedule: Q01DX001 (ip), vehicle: carboxymethylcellulose (CMC) 118 % of control | dose: 9.0 mg/kg/injection, schedule: Q01DX001 (ip), vehicle: carboxymethylcellulose (CMC) 115 % of control | dose: 26.0 mg/kg/injection, schedule: Q01DX001 (ip), vehicle: carboxymethylcellulose (CMC) 124 % of control

CC(C)=CCN(CC=C(C)C)CCC(C)(C(N)=O)c1cccc2ccccc12 (stereo not drawn)
inactive: dose: 6.25 mg/kg/injection, schedule: Q01DX009 (ip), vehicle: Klucel (hydroxypropylcellulose) (HPC) 101 % of control | dose: 6.25 mg/kg/injection, schedule: Q04DX003 (ip), vehicle: Klucel (hydroxypropylcellulose) (HPC) 104 % of control | dose: 12.5 mg/kg/injection, schedule: Q01DX009 (ip), vehicle: Klucel (hydroxypropylcellulose) (HPC) 98 % of control | dose: 12.5 mg/kg/injection, schedule: Q04DX003 (ip), vehicle: Klucel (hydroxypropylcellulose) (HPC) 100 % of control | dose: 25.0 mg/kg/injection, schedule: Q01DX009 (ip), vehicle: Klucel (hydroxypropylcellulose) (HPC) 101 % of control | dose: 25.0 mg/kg/injection, schedule: Q04DX003 (ip), vehicle: Klucel (hydroxypropylcellulose) (HPC) 105 % of control

CSCCC1NC(=O)C(C(C)=Nc2ccccc2)=C1O (stereo not drawn)
inactive: dose: 50.0 mg/kg/injection, schedule: Q01DX001 (ip), vehicle: carboxymethylcellulose (CMC) 101 % of control | dose: 100.0 mg/kg/injection, schedule: Q01DX001 (ip), vehicle: carboxymethylcellulose (CMC) 109 % of control | dose: 200.0 mg/kg/injection, schedule: Q01DX001 (ip), vehicle: carboxymethylcellulose (CMC) 104 % of control | dose: 400.0 mg/kg/injection, schedule: Q01DX001 (ip), vehicle: carboxymethylcellulose (CMC) 104 % of control

NC1(C(=O)O)C2CC3CC(C2)CC1C3 (stereo not drawn)
inactive: dose: 50.0 mg/kg/injection, schedule: Q01DX009 (ip), vehicle: other 100 % of control | dose: 100.0 mg/kg/injection, schedule: Q01DX009 (ip), vehicle: other 105 % of control | dose: 100.0 mg/kg/injection, schedule: Q04DX003 (ip), vehicle: alcohol 96 % of control | dose: 200.0 mg/kg/injection, schedule: Q01DX009 (ip), vehicle: other 92 % of control | dose: 200.0 mg/kg/injection, schedule: Q04DX003 (ip), vehicle: alcohol 95 % of control

CCOC(=O)CN(C)C(=O)OCC
inactive: [11] 104 % of control | [12] 101 % of control | [13] 117 % of control | [14] 101 % of control

Oc1cc2c(O)cccc2c2ccccc12
inactive: [15] 92 % of control | [16] 90 % of control

c1ccc(C2=NNC(c3ccccn3)=NN2)nc1
inactive: [15] 96 % of control | [16] 96 % of control | dose: 400.0 mg/kg/injection, schedule: Q04DX003 (ip), vehicle: saline with Tween-80 102 % of control

O=C1c2cccc(Cl)c2C(=O)c2c(O)ccc(O)c21
inactive: [9] 87 % of control | [10] 97 % of control | dose: 400.0 mg/kg/injection, schedule: Q04DX002 (ip), vehicle: saline with Tween-80 97 % of control

C[N+]1=C2CCCCC2=C(N)CC1
inactive: dose: 6.25 mg/kg/injection, schedule: Q01DX009 (ip), vehicle: saline sonified 106 % of control | dose: 12.5 mg/kg/injection, schedule: Q01DX009 (ip), vehicle: saline sonified 92 % of control | dose: 25.0 mg/kg/injection, schedule: Q01DX009 (ip), vehicle: saline sonified 92 % of control

O=C1Nc2ccccc2C2Cc3c([nH]c4ccccc34)CC12 (stereo not drawn)
inactive: [11] 115 % of control | [12] 104 % of control | [13] 104 % of control | [14] 89 % of control

CCc1nc(-c2ccccc2)c(-c2ccccc2)[nH]1
inactive: dose: 100.0 mg/kg/injection, schedule: Q01DX009 (ip), vehicle: saline with Tween-80 90 % of control | dose: 200.0 mg/kg/injection, schedule: Q01DX009 (ip), vehicle: saline with Tween-80 98 % of control | dose: 400.0 mg/kg/injection, schedule: Q01DX009 (ip), vehicle: saline with Tween-80 87 % of control

CC1=CC23C(COC(=O)C24CO4)C(C(=O)O)=CC3C1C (stereo not drawn)
inactive: dose: 10.0 mg/kg/injection, schedule: Q01DX001 (ip), vehicle: saline 96 % of control

O=C(O)/C=C\C(=O)Nc1ccccn1
inactive: [12] 92 % of control | [13] 100 % of control | [14] 103 % of control

Reference: PubChem BioAssay AID248 (DTP/NCI, 2004)
